In experiment [1] the target is c-Myc template DNA (c-myc quadruplex). As to the kind of experiment: Quadruplex binding / stop assay (Taq polymerase arrest, capillary electrophoresis).
The test system of experiment [2] is HeLa cells. Kind of experiment: MTS cell proliferation and/or cytotoxicity assay. Type of experiment: cell-based, Human. How it is done:
Cell culture. Human cervical epithelial cells (HeLa cells) were obtained from American Type Culture Collection (Manassas, Va.). Cells were grown in Eagle's minimum essential medium (MEM, Hyclone, Utah) supplemented with 2 mM Glutamine, 0.1 mM nonessential amino acid, 1 mM Na Pyruvate, 1.5 g/L NaHCO3, 50 mg/L gentamicin, and 10% fetal bovine serum (Hyclone, USA) in a humidified atmosphere of 5% CO2 at 37° C.
MTS assays. Antiproliferative effects of the compounds were tested by the CellTiter 96 AQueous assay (Promega, WI), which is a calorimetric assay for determining the number of viable cells. (See, e.g., Wang, L., et al., Methods Cell Sci (1996) 18:249-255). In one example, cells (4,500 cells/well) were seeded on 96 well flat bottom plates (Corning, N.Y.) in 100 μl of culture medium without any anticancer drug on day 0, and the culture medium was exchanged for that //contained anticancer drugs at various concentrations on day 1. After incubation for 3 days under normal growth conditions (on day 4), the monolayers were washed once in PBS, and the medium was switched to 100 μl of PBS in each of the 96 well plate. After mixing MTS and PMS at the ratio of 20:1, 20 μl of MTS/PMS solution was added to each of the 96 well plate and incubated for 4 hours in a humidified atmosphere of 5% CO2 at 37° C. The absorbance was read at 490 nm using FLUOstar Galaxy 96 well plate reader (BMG Labtechnologies, Germany). μM concentrations (MTS data) reported in Table 1 are concentrations at which 50% of antiproliferative cell response is seen.

Setting [3] is: read-out: Stop Data c-Myc μM, concentration at which 50% of the DNA was arrested (arrested:full-length 1:1).
The mark [4] stands for this setting: Homo sapiens, HeLa, 72 h, concentration at which 50% of antiproliferative cell response is seen, 3 days incubation, read-out: MTS Data Hella.
The mark [5] stands for this setting: read-out: S DATA, Table 1D, stop assay data.
The mark [6] stands for this setting: Homo sapiens, HeLa, HeLa cells, MTS, read-out: Hela MTS.

Read-outs that look alike come from different tables or passages of the source.

With `CN(C)CCCCNC(=O)c1cn2c3c(c(N4CC[C@@H](NC(=O)CCN5CCN(C)CC5)C4)c(F)cc3c1=O)Oc1cc3c(cc1-2)oc1ccccc13` [compound 357], the IC50 in experiment [1] (setting [3]) was 0.75 µM; in experiment [2] (setting [4]), 8.6 µM.
Taken in the same sequence, the figures for `CN1CCCC1CCNC(=O)c1cn2c3c(c(N4CC[C@@H](N)C4)c(F)cc3c1=O)Oc1c-2ccc2ccccc12` (some centres unmarked) [compound 110] were 1.75 µM and 0.25 µM.
`CC(=O)N[C@@H]1CCN(c2c(F)cc3c(=O)c(C(=O)NCCCCN(C)C)cn4c3c2Oc2cc3c(cc2-4)oc2ccccc23)C1` [compound 374]: the IC50 in experiment [1] (setting [3]) is 0.75 µM; in experiment [2] (setting [4]), 3.3 µM.
For `CN(C)CCCCNC(=O)c1cn2c3cc4c(cc3oc3c(N5CC[C@H](N)C5)c(F)cc(c1=O)c32)c(=O)c1ccccc14` [compound 580] the same measures were 0.18 µM and 0.3 µM.
`CN1CCN(CCCNC(=O)c2cn3c4c(c(NCCN5CCCC5)c(F)cc4c2=O)Oc2cc4c(cc2-3)oc2ccccc24)CC1` [compound 365]: the IC50 worked out at 0.75 µM in experiment [1] (setting [3]) and 3.8 µM in experiment [2] (setting [4]).
For `CN(C)CCCCNC(=O)c1cn2c3cc4c(cc3oc3c(NCCN5CCCC5)c(F)cc(c1=O)c32)c(=O)c1ccccc14` [compound 584] the same measures were 0.18 µM and 0.19 µM.
For `N[C@@H]1CCN(c2c(F)cc3c(=O)c(C(=O)NCCN4CCCC4)cn4c3c2Oc2ccccc2-4)C1` [compound 112], the IC50 in experiment [1] (setting [3]) is 1.75 µM; in experiment [2] (setting [4]), 0.22 µM.
Turning to `CN1CCCC1CCNC(=O)c1cn2c3c(c(NCC4(O)CCCCC4)c(F)cc3c1=O)Oc1cc3ccccc3cc1-2` (centres unmarked) [compound 1665], the IC50 amounted to 0.75 µM in experiment [1] (setting [5]) and 0.24 µM in experiment [2] (setting [6]).
As for `CN1CCCC1CCNC(=O)c1cn2c3c(c(N[C@H]4CN5CCC4CC5)c(F)cc3c1=O)Oc1cc3ccccc3cc1-2` (some centres unmarked) [compound 536], the IC50 in experiment [1] (setting [3]) stood at 0.375 µM; in experiment [2] (setting [4]), 0.31 µM.
As to `N[C@H]1CCN(c2c(F)cc3c(=O)c(C(=O)NCCN4CCCC4)cn4c3c2Oc2cc3ccccc3cc2-4)C1` [compound 341], the results for the IC50 in experiment [1] (setting [3]) and in experiment [2] (setting [4]) were 0.9 µM and 0.28 µM, respectively.
For `O=C(N[C@H]1C(O)O[C@H](CO)[C@H](O)[C@@H]1O)c1cn2c3c(c(NCCCN4CCOCC4)c(F)cc3c1=O)Oc1cc3c(cc1-2)oc1ccccc13` (some centres unmarked) [compound 37] the same measures were 2.5 µM and 2.8 µM.
Taken in the same sequence, the figures for `CN(C)CCCCNC(=O)c1cn2c3c(c(NCCCCN(C)C)c(F)cc3c1=O)Oc1cc3c(cc1-2)oc1ccccc13` [compound 367] were 0.75 µM and 3.7 µM.
As for `O=C(NCCC1CCCN1)c1cn2c3c(c(NCCCN4CCOCC4)c(F)cc3c1=O)Oc1cc3c(cc1-2)oc1ccccc13` (centres unmarked) [compound 562], the figures for the IC50 in experiment [1] (setting [3]) and in experiment [2] (setting [4]) were 0.32 µM and 0.85 µM, respectively.
With `NCCCNC(=O)c1cn2c3c(c(N4CC[C@@H](N)C4)c(F)cc3c1=O)Oc1cc3ccccc3cc1-2` [compound 485], the IC50 in experiment [1] (setting [3]) and in experiment [2] (setting [4]) was 0.5 µM in each case.
For the compound `CN1CCCC1CCNC(=O)c1cn2c3cc4oc5cc([N+](=O)[O-])ccc5[nH]c4cc3oc3c(NCCC4CCCN4C)c(F)cc(c1=O)c32` (centres unmarked) [compound 572], the IC50 in experiment [1] (setting [3]) was found to be 0.18 µM; in experiment [2] (setting [4]) it was 4.8 µM.
As for `CN1CCCC1CCNC(=O)c1cn2c3c(c(NC[C@@H]4CCCO4)c(F)cc3c1=O)Oc1cc3ccccc3cc1-2` (some centres unmarked) [compound 33], the IC50 in experiment [1] (setting [3]) came to 3 µM; in experiment [2] (concentration at which 50% of antiproliferative cell response is seen, 3 days incubation, read-out: MTS Data Hella), 0.29 µM.
In the case of `N=C(N)NCCNC(=O)c1cn2c3c(c(N4CC5CCCNC5C4)c(F)cc3c1=O)Oc1cc3ccccc3cc1-2` (centres unmarked) [compound 1646], the figures for the IC50 in experiment [1] (setting [5]) and in experiment [2] (setting [6]) were 0.64 µM and 0.4 µM, respectively.
In the case of `CC1(C)CC(NC(=O)c2cn3c4c(c(N5CCC(N)C5)ccc4c2=O)Oc2cc4ccccc4cc2-3)CC(C)(C)N1` (centres unmarked) [compound 1558], the IC50 in experiment [1] (setting [5]) was found to be 0.375 µM; in experiment [2] (setting [6]), 0.24 µM.
Regarding `O=C(NCCN1CCCC1)c1cn2c3c(c(NCC4CCCO4)c(F)cc3c1=O)Oc1cc3ccccc3cc1-2` (centres unmarked) [compound 31], the IC50 was 3 µM in experiment [1] (setting [3]) and 1.4 µM in experiment [2] (setting [4]).
As for `CN1CCCC1CCNC(=O)c1cn2c3c(c(NCCc4ccc(O)cc4)c(F)cc3c1=O)Oc1cc3ccccc3cc1-2` (centres unmarked) [compound 1681], the IC50 in experiment [1] (setting [5]) is 0.75 µM; in experiment [2] (setting [6]), 2.1 µM.
For `Nc1c(F)c(N2CCC(N)C2)c2c3c1c(=O)c(C(=O)O)cn3-c1cc3ccccc3cc1O2` (centres unmarked) [compound 5], the IC50 amounted to 1.75 µM in experiment [1] (setting [3]) and 7.2 µM in experiment [2] (setting [4]).
Taken in the same sequence, the figures for `CN1CCN(CCCNC(=O)c2cn3c4c(c(N5CC[C@@H](NC(=O)CCNCCC6CCCN6C)C5)c(F)cc4c2=O)Oc2cc4c(cc2-3)oc2ccccc24)CC1` (some centres unmarked) [compound 573] were 0.18 µM and 4.5 µM.
Taken in the same sequence, the figures for `CN1CCCC1CCNC(=O)c1cn2c3c(c(N4CC[C@@H](NC(=O)CCN5CCCCC5)C4)c(F)cc3c1=O)Oc1cc3c(cc1-2)oc1ccccc13` (some centres unmarked) [compound 484] were 0.5 µM and 3.1 µM.
On to `CC(C)NCCCNC(=O)c1cn2c3c(c(N4CCC(NC(=O)OC(C)(C)C)C4)c(F)cc3c1=O)Oc1cc3ccccc3cc1-2` (centres unmarked) [compound 312], for which the IC50 was found to be 1 µM in experiment [1] (setting [3]) and 1.9 µM in experiment [2] (setting [4]).
Taken in the same sequence, the figures for `CN1CCCC1CCNC(=O)c1cn2c3c(c(N4CC[C@H](N)C4)c(N)cc3c1=O)Oc1cc3ccccc3cc1-2` (some centres unmarked) [compound 526] were 0.375 µM and 0.9 µM.
Consider `CN(C)CCCCNC(=O)c1cn2c3c(c(N4CC[C@@H](NC(=O)CCN5CCCCC5)C4)c(F)cc3c1=O)Oc1cc3c(cc1-2)oc1ccccc13` [compound 507], for which the IC50 was 0.375 µM in experiment [1] (setting [3]) and 3.3 µM in experiment [2] (setting [4]).
In the case of `CN1CCN(CCCNC(=O)c2cn3c4cc5c(cc4oc4c(NCCN6CCCC6)c(F)cc(c2=O)c43)c(=O)c2ccccc25)CC1` [compound 524], the IC50 in experiment [1] (setting [3]) amounted to 0.375 µM; in experiment [2] (setting [4]) it was 1.5 µM.
Regarding `CN1CCCC1CCNC(=O)c1cn2c3c(c(N[C@@H]4CN5CCC4CC5)c(F)cc3c1=O)Oc1cc3ccccc3cc1-2` (some centres unmarked) [compound 1497], the results for the IC50 in experiment [1] (setting [5]) and in experiment [2] (setting [6]) were 0.5 µM and 0.39 µM, respectively.
In the case of `CCN(CC)CCCC(C)NC(=O)c1cn2c3c(c(N4CCC(c5cnccn5)C4)c(F)cc3c1=O)Oc1cc3ccccc3cc1-2` (centres unmarked) [compound 27], the results for the IC50 in experiment [1] (setting [3]) and in experiment [2] (setting [4]) were 3 µM and 3.8 µM, respectively.
For `CCN(C)CCCC(C)NC(=O)c1cn2c3c(c(NCCN4CCCC4)ccc3c1=O)Oc1cc3ccccc3cc1-2` (centres unmarked) [compound 543] the same measures were 0.375 µM and 0.2 µM.
For `CN1CCN(CC(=O)N[C@@H]2CCN(c3c(F)cc4c(=O)c(C(=O)NCCN5CCCC5)cn5c4c3Oc3cc4c(cc3-5)oc3ccccc34)C2)CC1` [compound 505] the same measures were 0.375 µM and 3.4 µM.
Regarding `NCCCCNC(=O)c1cn2c3c(c(N4CC[C@@H](N)C4)c(F)cc3c1=O)Oc1cc3ccccc3cc1-2` [compound 528], the IC50 is 0.375 µM in experiment [1] (setting [3]) and 0.75 µM in experiment [2] (setting [4]).
Taken in the same sequence, the figures for `CN(C)CCCCNc1c(F)cc2c(=O)c(C(=O)NCCC3CCCN3C)cn3c2c1Oc1c-3ccc2ccccc12` (centres unmarked) [compound 496] were 0.41 µM and 4 µM.
Take `O=C(NCCCN1CCOCC1)c1cn2c3cc4c(=O)c5ccccc5c(=O)c4cc3oc3c(NCCN4CCCC4)c(F)cc(c1=O)c32` [compound 591]: the IC50 amounted to 0.13 µM in experiment [1] (setting [3]) and 3.3 µM in experiment [2] (setting [4]).
As for `CN(C)c1cccc(CNc2c(F)cc3c(=O)c(C(=O)NCCC4CCCN4C)cn4c3c2Oc2cc3ccccc3cc2-4)c1` (centres unmarked) [compound 1688], the IC50 is 0.75 µM in experiment [1] (setting [5]) and 0.25 µM in experiment [2] (setting [6]).
Taken in the same sequence, the figures for `CN1CCCC1CCNC(=O)c1cn2c3c(c(NCCc4ccc(O)c(O)c4)c(F)cc3c1=O)Oc1cc3ccccc3cc1-2` (centres unmarked) [compound 1680] were 0.75 µM and 1.8 µM.
Regarding `O=C(NCCN1CCCC1)c1cn2c3cc4c(=O)c5ccccc5c(=O)c4cc3oc3c(NCCN4CCCC4)c(F)cc(c1=O)c32` [compound 568], the IC50 was 0.22 µM in experiment [1] (setting [3]) and 4.1 µM in experiment [2] (setting [4]).
For `CN1CCN(CCCNC(=O)c2cn3c4c(c(N5CC[C@@H](NC(=O)CCN6CCCCC6)C5)c(F)cc4c2=O)Oc2cc4c(cc2-3)oc2ccccc24)CC1` [compound 508] the same measures were 0.375 µM and 3.2 µM.
For `CN(C)CCCCNC(=O)c1cn2c3cc4c(cc3oc3c(NCCCCN(C)C)c(F)cc(c1=O)c32)c(=O)c1ccccc14` [compound 576] the same measures were 0.18 µM and 2.1 µM.
As for `CN1CCCC1CCNC(=O)c1cn2c3c(c(N4CCC(N)C4)c(F)cc3c1=O)Oc1cc3c(cc1-2)Cc1ccccc1-3` (centres unmarked) [compound 537], the IC50 in experiment [1] (setting [3]) is 0.375 µM; in experiment [2] (setting [4]) it was 0.29 µM.

For the origin of these results see patent US7507727B2, “Substituted quinobenzoxazine analogs and methods of using thereof” (Cylene Pharmaceuticals, Inc., priority 2003, dated 2009).
